Measured values from PubChem BioAssay (NCI).
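Dose response: 5 concentrations. Exposure: 48 h. Format: 96-well plates. Endpoint: linear interpolation; highest concentration if not reached. TGI: total growth inhibition.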

How the values were obtained:
Assay in all cases: NCI-60 cell line screen, 48 h
[1] = system: A549 NSCLC
[2] = system: KM12 colon
[3] = system: ACHN renal
[4] = system: SK-MEL-2 melanoma
[5] = system: DU-145 prostate
[6] = system: SK-MEL-28 melanoma
[7] = system: HS 578T breast
[8] = system: MDA-N
[9] = system: K-562 leukemia
[10] = system: NCI-H460 lung

| Compound | TGI [1] | TGI [2] | TGI [3] | TGI [4] | TGI [5] | TGI [6] | TGI [7] | TGI [8] | TGI [9] | TGI [10] |
| --- | --- | --- | --- | --- | --- | --- | --- | --- | --- | --- |
| CCOC(=O)c1nc2ccc(C(F)(F)F)cc2nc1NCc1cc(OC)c(OC)c(OC)c1 | > 100 µM | > 100 µM | > 100 µM | > 100 µM | > 100 µM | > 100 µM | > 100 µM | 76 µM | – | – |
| CC(=O)OC(/C=C/c1ccccc1)=C(OC(C)C)/C1=C(\c2ccccc2)SCCCSC1=O | > 100 µM | > 100 µM | > 100 µM | > 100 µM | > 100 µM | > 100 µM | > 100 µM | – | > 100 µM | > 100 µM |
| O=Cc1ccc2c(c1)CC1(Cc3ccccc3C1)C2 | > 100 µM | > 100 µM | 65.7 µM | 27.1 µM | – | – | > 100 µM | 38.9 µM | 44.9 µM | – |
| CC1NC(=O)CC(c2ccccc2)N(N=O)C1c1ccccc1 (stereo not given) | > 100 µM | > 100 µM | – | > 85.9 µM | – | > 100 µM | – | – | > 88.5 µM | > 90.2 µM |
| COc1cc(C(=O)N(Cc2cccnc2)C(=S)N(Cc2cccnc2)C(=O)c2cc(OC)c(OC)c(OC)c2)cc(OC)c1OC | > 100 µM | 56.7 µM | > 100 µM | – | > 100 µM | > 100 µM | > 100 µM | > 100 µM | > 100 µM | > 100 µM |
| O=S(=O)(N=S(c1ccccc1)c1ccccc1)c1ccccc1 | > 100 µM | > 100 µM | > 100 µM | – | > 100 µM | > 100 µM | – | – | > 100 µM | > 100 µM |
| O=C1/C(=N/O)Cc2c(Br)ccc(Br)c21 | – | > 100 µM | > 100 µM | 48.4 µM | > 100 µM | > 100 µM | > 100 µM | > 100 µM | 84.5 µM | > 100 µM |
| O=C1C=C(C2=CC(=O)C(=O)c3ccccc32)c2ccccc2C1=O | > 100 µM | 39.8 µM | > 100 µM | 72.3 µM | 29.4 µM | > 100 µM | 90.7 µM | – | > 100 µM | – |
| COc1cc(Cn2c3c(c4cc(O)ccc42)Cc2ccccc2C3=O)cc(OC)c1 | > 100 µM | > 100 µM | – | > 100 µM | > 100 µM | > 100 µM | > 100 µM | > 100 µM | > 100 µM | > 100 µM |
| O=C(O)c1ccc([N+](=O)[O-])c2cc3cnccc3nc12 | – | 44.4 µM | – | 38.9 µM | > 100 µM | 34.8 µM | 65.6 µM | 51.3 µM | 36.5 µM | > 100 µM |
| COC1C=CC(O)C(CO)O1 (stereo not given) | > 100 µM | > 100 µM | > 100 µM | > 100 µM | – | > 100 µM | – | – | > 100 µM | > 100 µM |
| NN/C(=N\S(=O)(=O)c1cc2ccccc2s1)Nc1ccc(Cl)cc1 | 39.8 µM | 48.1 µM | 54.4 µM | 34.5 µM | 32.3 µM | 75 µM | – | – | > 100 µM | 39.6 µM |
